Molecules are shown by their SMILES.

The GI50 is the concentration giving 50% growth inhibition. The low end stands for more potent growth inhibition, the high end for less potent growth inhibition. As a reminder, the IC50 is the concentration needed to halve the response being measured.

In test [1] the test system is THP-1 cells. Nature of the test: Cell growth inhibition assay (CellTiter-Glo), THP-1. It is filed as cell-based. As to conditions: Homo sapiens. The essentials:
(§1)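 Cellular ATP (CellTiter-Glo luminescence) measured after 4 days at 37° C., 5% CO2 of compound exposure, top concentration 10 μM in 3-fold steps, 0.1% DMSO. Readings corrected for no-cell background and a day-0 plate, normalised to vehicle and medium wells; half-maximal and total growth inhibition from four-parameter curves.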
On the technique in general: In ATP-based viability assays light output follows the ATP content of the culture.

The subject of test [2] is MV-4-11 cells. Nature of the test: Cell growth inhibition assay (CellTiter-Glo), MV-4-11. As to conditions: Homo sapiens, MV4-11. In kind it is cell-based. Summed up:
as §1

The target of test [3] is T1, nuclear BRD4-NUT foci in HCC2494 NUT midline carcinoma cells (Homo sapiens, UniProt O60885+Q86Y26).
T1 construct: HCC2494 NUT midline carcinoma cells (expressing BRD4-NUT-fusion)
Nature of the test: Nut-foci formation assay. As to conditions: 24 hours, NUT-foci per nucleus, read-out: HCS Brd4-NUT IC50. It is filed as cell-based. Here is the method: HCC2494 NUT midline carcinoma cells (expressing BRD4-NUT-fusion) were obtained from the University of Texas Southwestern and cultured in RPMI-1640 medium containing 10% Foetal Calf Serum at 37° C. in a humidified 5% CO2 incubator.
Compound-mediated inhibition of BRD4 activity was monitored by quantification of the number and intensity of nuclear BRD4-NUT foci using automated immunofluorescence microscopy. Briefly, 5000 cells in 20 μL fresh medium were seeded into Poly-D-Lysine-precoated 384-well plates and incubated overnight at 37° C. and 5% CO2, followed by addition of 5 μl medium containing compound dilutions at 5-fold their final intended concentration. Dose-response effects were assessed by 3-fold serial dilutions of the test compound, starting at 10 μM. […] Assay plates were imaged using the appropriate filter sets on the Cellomics VTi automated fluorescence microscopy platform (ThermoFisher Scientific) and the population average of the number of NUT-foci per nucleus is quantified using the Cellomics Spot Detection BioApplication image analysis algorithm (ThermoFisher Scientific). The effect of a particular test compound concentration on NUT-foci number and intensity is expressed as percentage of the value obtained for cells treated with vehicle only (DMSO, 0.1% final concentration), which was set as 100. […]

In test [4] the test system is K-562 cells. The test can be described thus: Cell growth inhibition assay (CellTiter-Glo), K-562. As to conditions: Homo sapiens, K562. It is filed as cell-based, human. Summed up: as §1

For the molecule `CNc1cc(N2C(=O)c3c(c(C)nn3C3CC3)C2c2ccc(Cl)cc2)nn2c(C)nnc12` (racemic) [Example 113, 4-(4-chlorophenyl)-1-cyclopropyl-3-methyl-5-(3-methyl-8-(methylamino)-[1,2,4]triazolo[4,3-b]pyridazin-6-yl)-4,5-dihydropyrrolo-[3,4-c]pyrazol-6(1H)-one], the GI50 in test [1] came out at 112 nM; in test [2] it was 84 nM; in test [4] it was 511 nM. Also, the IC (TGI) in test [1] was 234 nM; in test [2], 127 nM; in test [4], more than 10000 nM. Also, the 50% inhibitory concentration (IC50) in test [3] is 151 nM.
